This test deals with T1, IR-β (Mus musculus, UniProt P15208).
T1 construct: from tissue; host or cells: fat (adipose) tissue of STZ-induced diabetic C57BL/6 mice and ob/ob mice
Description: Phosphorylation of IR-β in adipose tissue of treated diabetic mice. In kind it is in vivo. Conditions: 2 weeks of DHH105 treatment. How it is done:
Adipocytes treated with DHH105 for 2 h or insulin for 10 min were homogenized in 5 ml lysis buffer (20 mM Tris, pH 7.4, 1% SDS, 10% glycerol, 150 mM NaCl, 2 mM EDTA, 20 mM NaF, 1 mM NaVO4, 2 mM sodium pyrophosphate, protease inhibitor cocktail, and phosphatase inhibitor cocktail) with a teflon pestle (15 strokes). Homogenized adipocytes were sonicated for 3 min and solubilized for 30 min. The homogenate was centrifuged at 3,000 g for 10 min at 4° C. The protein concentration of the lysate was determined by the Bradford method. After dilution (1 μg/μl protein concentration), the lysates were incubated with anti-insulin receptor-β (IR-β) antibody (Upstate Biotech, Charlottesville, Va.) or anti-IRS-1 antibody (Upstate Biotech) overnight at 4° C. Protein A Sepharose beads (100 μl, Amersham Pharmacia Biotech) were added and the mixture was gently rocked for 2 h at 4° C. […] The membranes were washed and the immunoreactive proteins were detected with an enhanced chemoluminescence western blot detection kit (Amersham Pharmacia Biotech). To examine whether in vivo treatment of STZ-induced diabetic C57BL/6 mice or ob/ob mice with DHH105 also increases phosphorylation of IR-β, and IRS-1, fat tissue was removed from the mice after 2 weeks of DHH105 treatment and phosphorylation of IR-β and IRS-1 was measured by immunoprecipitation and western blot.

Molecules are shown by their SMILES.

T1 sequence (P15208 753-1372 limits assumed): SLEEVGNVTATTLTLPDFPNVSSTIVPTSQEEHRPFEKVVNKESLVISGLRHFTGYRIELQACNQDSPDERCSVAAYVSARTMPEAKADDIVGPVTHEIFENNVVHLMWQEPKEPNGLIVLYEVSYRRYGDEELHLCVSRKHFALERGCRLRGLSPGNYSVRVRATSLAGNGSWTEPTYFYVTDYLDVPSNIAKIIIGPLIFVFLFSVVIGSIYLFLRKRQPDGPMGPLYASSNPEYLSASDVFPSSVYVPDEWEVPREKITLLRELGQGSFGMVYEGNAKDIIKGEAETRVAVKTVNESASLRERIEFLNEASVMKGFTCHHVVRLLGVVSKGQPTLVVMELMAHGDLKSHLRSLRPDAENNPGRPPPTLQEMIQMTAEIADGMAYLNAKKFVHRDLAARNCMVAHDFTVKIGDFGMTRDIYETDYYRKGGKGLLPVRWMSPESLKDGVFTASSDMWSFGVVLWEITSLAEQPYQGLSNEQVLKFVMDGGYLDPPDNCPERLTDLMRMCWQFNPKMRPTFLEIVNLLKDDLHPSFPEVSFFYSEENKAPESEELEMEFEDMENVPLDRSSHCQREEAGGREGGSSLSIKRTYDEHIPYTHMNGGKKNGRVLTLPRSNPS
T1 sequence (P15208 28-748 limits assumed): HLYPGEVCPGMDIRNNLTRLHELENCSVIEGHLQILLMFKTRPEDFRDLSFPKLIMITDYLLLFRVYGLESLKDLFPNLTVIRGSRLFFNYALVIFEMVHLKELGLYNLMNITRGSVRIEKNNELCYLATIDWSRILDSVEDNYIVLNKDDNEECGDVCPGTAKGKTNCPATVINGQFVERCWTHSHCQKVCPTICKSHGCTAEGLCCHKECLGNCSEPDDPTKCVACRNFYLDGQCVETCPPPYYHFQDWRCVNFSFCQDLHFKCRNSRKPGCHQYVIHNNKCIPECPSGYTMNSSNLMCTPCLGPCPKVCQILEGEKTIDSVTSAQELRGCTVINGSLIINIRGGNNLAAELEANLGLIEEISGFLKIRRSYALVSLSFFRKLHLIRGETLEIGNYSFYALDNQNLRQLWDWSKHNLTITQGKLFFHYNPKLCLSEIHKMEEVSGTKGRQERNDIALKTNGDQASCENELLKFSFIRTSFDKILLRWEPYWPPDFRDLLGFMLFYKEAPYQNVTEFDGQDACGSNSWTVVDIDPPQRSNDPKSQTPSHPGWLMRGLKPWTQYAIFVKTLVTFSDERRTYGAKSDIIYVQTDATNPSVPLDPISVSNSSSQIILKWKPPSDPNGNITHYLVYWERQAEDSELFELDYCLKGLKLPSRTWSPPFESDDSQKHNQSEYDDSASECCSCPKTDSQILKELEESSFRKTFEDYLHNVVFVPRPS

Take `O=C(CCc1ccc(O)c(O)c1)OCc1cccc2ccccc12` [DHH105, 3,4-dihydroxyhydrocinnamic acid naphthalene methyl ester]: the “phosphorylation of IR-β in adipose tissue” value (STZ-induced diabetic C57BL/6 mice) is “increased” and the “phosphorylation of IR-β in adipose tissue” value (ob/ob mice) is recorded as “increased”.

These data come from patent US7192981B2, “3,4-dihydroxyhydrocinnamic acid derivative” (Bionutrigen Co., Ltd., priority 2005, dated 2007).
